The text below walks through data of patent US4735959A, “Carboxylic acid amides and pharmaceutical compositions containing them” (Dr. Karl Thomae GmbH, priority 1981, dated 1988).

Where two headings read alike, the source gives them in different places.

Holding throughout (format): in vivo
Data set [1] in a line: Acute toxicity in female and male mice after oral administration of a single dose. Conditions: mouse, in vivo, observation time 14 days, read-out: Peroral Toxicity. How it is done:
(§1) The acute toxicity was determined in home-bred female and male mice having body weights of from 20 to 26 gm after oral administration (suspension in a 1% methyl cellulose solution) of a single dose. Observation time: 14 days.

Data set [2] concerns mice. The data set is described as above. Conditions: observation time 14 days. The procedure: as §1
Data set [3] deals with blood-sugar. The experiment in a line: Blood-sugar lowering activity in starved female rats after oral administration. Conditions: for change in vivo at 1 mg/kg / change in vivo at 5 mg/kg / change in vivo at 10 mg/kg: Rattus norvegicus, po, read-out: Blood-sugar lowering activity, percent as compared with the controls; for change in vivo at 10 mg/kg: 10 mg/kg orally (footnote *). The procedure: The blood-sugar lowering activity of the test compounds was determined in home-bred female rats with weights of from 180 to 220 grams. Twenty-four hours before starting the test the animals were starved. Before the test the compounds were suspended in 1.5% methyl cellulose and administered to the animals by means of an esophageal tube.
Blood was taken from the retroorbital plexus vein before administration of the test compounds as well as each of 1, 2, 3, and 4 hours after administration. Fifty microliters of each sample were deproteinized with 0.5 ml of 0.33N perchloric acid and centrifuged. The glucose content was determined in the supernatant according to the Hexokinase method by means of an analysis photometer. The statistical evalulation was performed with the t-test according to Student with p=0.05.

Where [4] appears, read: 1 mg/kg orally, 3 hours, n.s. = not statistically significant.
Where [5] appears, read: 1 mg/kg orally, 1 hour, n.s. = not statistically significant.
[6] abbreviates: 1 mg/kg orally, 2 hours, n.s. = not statistically significant.
Setting [7] is: 1 mg/kg orally, 4 hours, n.s. = not statistically significant.
Where [8] appears, read: 5 mg/kg orally, 1 hour, n.s. = not statistically significant.
Setting [9] is: 5 mg/kg orally, 2 hours, n.s. = not statistically significant.
The mark [10] stands for this setting: 5 mg/kg orally, 3 hours, n.s. = not statistically significant.
Where [11] appears, read: 5 mg/kg orally, 4 hours, n.s. = not statistically significant.

As to `CC(NC(=O)Cc1ccc(C(=O)O)cc1)c1ccccc1N1CCCCC1` (racemic) [AT, (±)-4-[(1-(2-Piperidino-phenyl)-1-ethyl)-aminocarbonylmethyl]-benzoicacid], the LD50 at 336 h in data set [1] is over 2000 mg/kg. For the same compound, in data set [2], the animals died is recorded as 1 out of 10. The “Blood-sugar lowering activity, percent as compared with the controls” value (“Blood-sugar lowering activity, percent” below) in data set [3] (setting [4]) is on record as “n.s”. In addition, the change in vivo at 1 mg/kg in data set [3] (setting [5]) is -34%; in data set [3] (setting [6]), -26%; in data set [3] (setting [7]), -11%. Also, the change in vivo at 5 mg/kg in data set [3] (setting [8]) is -45%; in data set [3] (setting [9]) it was -45%; in data set [3] (setting [10]), -36%; in data set [3] (setting [11]), -32%.

As to `O=C(Cc1ccc(C(=O)O)cc1)NC(c1ccccc1)c1ccccc1N1CCCCC1` (racemic) [AV, (±)-4-[(2-Piperidino-benzhydryl)-aminocarbonylmethyl]-benzoic acid], the LD50 at 336 h in data set [1] is over 2000 mg/kg. Also, in data set [2], the animals died was 0 out of 10. Also, the change in vivo at 1 mg/kg is -41% in data set [3] (setting [5]), -38% in data set [3] (setting [6]), -26% in data set [3] (setting [4]) and -24% in data set [3] (setting [7]). Moreover, the change in vivo at 5 mg/kg in data set [3] (setting [8]) was -44%; in data set [3] (setting [9]) it was -38%; in data set [3] (setting [10]) it was -41%; in data set [3] (setting [11]) it was -37%.

In the case of `CCCC(NC(=O)Cc1ccc(C(=O)O)cc1)c1ccccc1N1CCCCC1` (racemic) [J, (±)-4-[(1-(2-Piperidino-phenyl)-1-butyl)-aminocarbonylmethyl]-benzoic acid], in data set [1], the LD50 at 336 h was over 2000 mg/kg. Further, the animals died in data set [2] is on record as 0 out of 10. The change in vivo at 1 mg/kg in data set [3] (setting [5]) was -38%; in data set [3] (setting [6]), -32%; in data set [3] (setting [4]), -34%; in data set [3] (setting [7]), -29%. In addition, the change in vivo at 5 mg/kg was -44% in data set [3] (setting [8]), -37% in data set [3] (setting [9]), -42% in data set [3] (setting [10]) and -42% in data set [3] (setting [11]).

Regarding `CC/C=C(\NC(=O)Cc1ccc(C(=O)O)cc1)c1ccccc1N1CCCCC1` [A, (Z)-4-[(1-(2-Piperidino-phenyl)-1-buten-1yl)-aminocarbonylmethyl]-benzoicacid], in data set [1], the LD50 at 336 h is over 1000 mg/kg. In addition, the animals died in data set [2] is recorded as 0 out of 6. Also, the change in vivo at 1 mg/kg in data set [3] (setting [5]) is -43%; in data set [3] (setting [6]), -40%; in data set [3] (setting [4]), -33%; in data set [3] (setting [7]), -35%.

For `Cc1ccc(C(NC(=O)Cc2ccc(C(=O)O)cc2)c2ccccc2N2CCCCC2)cc1` (stereo not drawn) [AA, 4-[(α-(4-Methyl-phenyl)-2-piperidino-benzyl)-aminocarbonylmethyl]-benzoic acid], the LD50 at 336 h in data set [1] was over 1000 mg/kg. Also, the animals died in data set [2] is 0 out of 10. In addition, the “Blood-sugar lowering activity, percent” value in data set [3] (setting [7]) and in data set [3] (setting [11]) was “n.s” each time. Further, the figures for the change in vivo at 1 mg/kg in data set [3] (setting [5]), in data set [3] (setting [6]) and in data set [3] (setting [4]) were -15%, -15% and -13%, respectively. The change in vivo at 5 mg/kg in data set [3] (setting [8]) was -30%; in data set [3] (setting [9]), -33%; in data set [3] (setting [10]) it was -14%.

Take `Cc1cccc(C(NC(=O)Cc2ccc(C(=O)O)cc2)c2ccccc2N2CCCCC2)c1` (stereo not drawn) [AB, 4-[(α-(3-Methyl-phenyl)-2-piperidino-benzyl)-aminocarbonylmethyl]-benzoic acid]: in data set [1], the LD50 at 336 h was over 1000 mg/kg. Moreover, the animals died in data set [2] is given as 0 out of 10. For the same compound, the “Blood-sugar lowering activity, percent” value in data set [3] (setting [4]) and in data set [3] (setting [7]) was “n.s” throughout. Moreover, the values for the change in vivo at 1 mg/kg in data set [3] (setting [5]) and in data set [3] (setting [6]) were -26% and -15%, respectively. The change in vivo at 5 mg/kg was -43% in data set [3] (setting [8]), -38% in data set [3] (setting [9]), -36% in data set [3] (setting [10]) and -27% in data set [3] (setting [11]).

For `O=C(Cc1ccc(C(=O)O)cc1)NC(c1ccc(F)cc1)c1ccccc1N1CCCCC1` (stereo not drawn) [AC, 4-[(α-(4-Fluoro-phenyl)-2-piperidino-benzyl)-aminocarbonylmethyl]-benzoic acid], the LD50 at 336 h in data set [1] was over 1000 mg/kg. Besides, the animals died in data set [2] is 0 out of 10. For the same compound, the change in vivo at 5 mg/kg in data set [3] (setting [8]) was -36%; in data set [3] (setting [9]), -37%; in data set [3] (setting [10]) it was -36%; in data set [3] (setting [11]), -33%.

Regarding `O=C(Cc1ccc(C(=O)O)cc1)NC(c1ccccc1F)c1ccccc1N1CCCCC1` (stereo not drawn) [AD, 4-[(α-(2-Fluoro-phenyl)-2-piperidino-benzyl)-aminocarbonylmethyl]-benzoic acid], in data set [1], the LD50 at 336 h is over 1000 mg/kg. Further, in data set [2], the animals died is reported as 0 out of 10. For the same compound, the change in vivo at 1 mg/kg was -16% in data set [3] (setting [5]), -20% in data set [3] (setting [6]), -17% in data set [3] (setting [4]) and -14% in data set [3] (setting [7]). For the same compound, the change in vivo at 5 mg/kg in data set [3] (setting [8]) was -28%; in data set [3] (setting [9]), -32%; in data set [3] (setting [10]), -27%; in data set [3] (setting [11]) it was -28%.

As for `CCCC(NC(=O)Cc1ccc(C(=O)O)cc1)c1ccc(F)cc1N1CCCCC1` (stereo not shown) [V, 4-[(1-(4-Fluoro-2-piperidino-phenyl)-1-butyl)-aminocarbonylmethyl]-benzoic acid], the change in vivo at 1 mg/kg in data set [3] (setting [5]) was -37%; in data set [3] (setting [6]), -23%; in data set [3] (setting [4]), -30%; in data set [3] (setting [7]), -18%. Besides, the change in vivo at 5 mg/kg is -45% in data set [3] (setting [8]), -41% in data set [3] (setting [9]), -46% in data set [3] (setting [10]) and -40% in data set [3] (setting [11]).

For the compound `CCCC(NC(=O)Cc1ccc(C(=O)O)cc1)c1ccc(OC)cc1N1CCCCC1` (stereo not shown) [W, 4-[(1-(4-Methoxy-2-piperidino-phenyl)-1-butyl)-aminocarbonylmethyl]-benzoic acid], in data set [3] (setting [7]), the “Blood-sugar lowering activity, percent” value was “n.s”. The change in vivo at 1 mg/kg in data set [3] (setting [5]) was -36%; in data set [3] (setting [6]) it was -25%; in data set [3] (setting [4]) it was -16%. Also, the change in vivo at 5 mg/kg in data set [3] (setting [8]) was -46%; in data set [3] (setting [9]), -45%; in data set [3] (setting [10]) it was -39%; in data set [3] (setting [11]), -37%.

As to `C=C(NC(=O)Cc1ccc(C(=O)O)cc1)c1ccccc1N1CCCCCCCC1` [X, 4-[(1-(2-Octahydroazonino-phenyl)-1-ethenyl)-aminocarbonylmethyl]-benzoicacid], the change in vivo at 10 mg/kg in data set [3] (1 hour) is -34%; in data set [3] (2 hours) it was -21%; in data set [3] (3 hours, n.s. = not statistically significant), -17%; in data set [3] (4 hours, n.s. = not statistically significant), -14%.

As for `CC(NC(=O)Cc1ccc(C(=O)O)cc1)c1cccc(Cl)c1N1CCCCC1` (stereo not shown) [Y, 4-[(1-(3-Chloro-2-piperidino-phenyl)-1-ethyl)-aminocarbonylmethyl]-benzoic acid], the change in vivo at 5 mg/kg in data set [3] (setting [8]) was -32%; in data set [3] (setting [9]) it was -24%; in data set [3] (setting [10]), -16%; in data set [3] (setting [11]), -18%.

`Cc1cccc(C(C)NC(=O)Cc2ccc(C(=O)O)cc2)c1N1CCCCC1` (stereo not shown) [Z, 4-[(1-(3-Methyl-2-piperidino-phenyl)-1-ethyl)-aminocarbonylmethyl]-benzoic acid]: the change in vivo at 5 mg/kg in data set [3] (setting [8]) was -22%; in data set [3] (setting [9]) it was -33%; in data set [3] (setting [10]), -28%; in data set [3] (setting [11]), -26%.
